In patent US7994185B2, “Benzene sulfonamide thiazole and oxazole compounds” (Glaxo Smith Kline LLC, priority 2008, dated 2011):
Where a name gives a salt, the structure may show the parent alone. Read-outs that look alike come from different tables or passages of the source.

Experiments:
[1] = molecular target: T1, BRAFV600E full-length (amino acids 2-766) (Homo sapiens, UniProt P15056, V600E); test: B-Raf Accelerated MEK ATPase assay (BRAMA); assay type: biochemical; settings: categorized
T1 construct: His6-tagged BRAFV600E full-length (amino acids 2-766); His6; made in house; host or cells: baculovirus expression system (insect cells)
T1 sequence (P15056 2-766 V600E): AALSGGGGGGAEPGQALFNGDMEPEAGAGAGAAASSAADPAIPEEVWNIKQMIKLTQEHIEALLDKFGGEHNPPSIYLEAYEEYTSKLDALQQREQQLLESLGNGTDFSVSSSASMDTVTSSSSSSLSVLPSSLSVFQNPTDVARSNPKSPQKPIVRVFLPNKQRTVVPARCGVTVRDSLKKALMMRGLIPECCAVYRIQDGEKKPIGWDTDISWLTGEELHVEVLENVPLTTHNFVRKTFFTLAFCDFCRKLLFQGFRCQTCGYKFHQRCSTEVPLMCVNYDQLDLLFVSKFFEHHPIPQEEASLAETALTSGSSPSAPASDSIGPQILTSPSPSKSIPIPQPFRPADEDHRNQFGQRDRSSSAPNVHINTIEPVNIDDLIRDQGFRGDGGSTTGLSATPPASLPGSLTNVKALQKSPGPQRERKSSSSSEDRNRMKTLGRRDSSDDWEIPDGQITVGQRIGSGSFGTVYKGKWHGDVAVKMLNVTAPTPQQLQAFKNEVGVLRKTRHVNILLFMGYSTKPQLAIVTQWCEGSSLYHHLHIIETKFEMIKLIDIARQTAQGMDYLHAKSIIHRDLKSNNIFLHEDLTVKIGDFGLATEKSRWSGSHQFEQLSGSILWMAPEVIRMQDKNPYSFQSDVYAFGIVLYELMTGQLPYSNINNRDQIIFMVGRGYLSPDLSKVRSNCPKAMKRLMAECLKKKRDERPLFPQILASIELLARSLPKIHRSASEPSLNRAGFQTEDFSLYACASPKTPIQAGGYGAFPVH
Method in brief: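 Coupled-enzyme readout: ADP generated by MEK-mediated ATP hydrolysis, uncoupled from ERK phosphorylation, is linked to NADH oxidation through pyruvate kinase and lactate dehydrogenase.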

[2] = system: Human colon tumor cells (Colo205); test: Cell growth inhibition assay (CellTiter-Glo), Colo205; assay type: cell-based
Procedure: Human colon tumor cells (Colo205) were cultured in RPMI (Mediatech 50-020-PB) containing 10% FBS and 1% penicillin-streptomycin.
The next day, compounds were diluted as follow: For 96-well assays, 13.5 μL of compound in DMSO were diluted using nine (9) serial 1:3 dilutions of 4.5 μL in 9 μL of DMSO. Medium (270 μL/well of RPMI with 10% FBS and 1% penicillin-streptomycin) was added to the plates. Aliquots (7 μL) were added to cells in the final assay giving a final DMSO concentration of 0.2%. For 384-well assays, 15 μL of compound in DMSO were diluted using nine (9) serial 1:3 dilutions of 5 μL in 10 μL of DMSO, followed by a further dilution of 5 μL of compound with 95 μL of medium, of which 2 μL were added to cells in the final assay giving a final DMSO concentration of 0.2%. Cells were incubated at 37° C., 5% CO2 for 3 days.
Total ATP was measured (as a surrogate estimate of cell number) using CellTiter-Glo® reagent (Promega G7571). Briefly, plates were removed from the incubator and allowed to equilibrate to room temperature for 30 minutes. CellTiter-Glo® (25 μL or 55 μL for 384-well or 96-well assays, respectively) reagent was added to each well and plates were shaken on an orbital plate shaker for 2 minutes. Plates were incubated without shaking for a further 30 minutes and read on an LJL Analyst GT reader in luminometer mode with an integration time of 0.5 seconds per well. Percent inhibition of cell growth was calculated relative to DMSO vehicle-treated control wells.

[3] = system: Human melanoma cancer cells (SK-MEL-28); test: Cell growth inhibition assay (CellTiter-Glo), SK-MEL-28; assay type: cell-based
[4] = B-Raf Activity, Table 1a, highest pIC50 for the one or more runs
[5] = B-Raf pIC50, Table 1b, later runs, average pIC50 for the one or more runs
[6] = COLO 205, 72 h, Table 2a, 3 days incubation, read-out: Activity in Colo205 Tumor Cells
[7] = COLO 205, Table 2b, later runs, average for the one or more runs, categorized, read-out: IC50 for Colo205
[8] = SK-MEL-28, 72 h, Table 3a, 3 days incubation, read-out: Activity in SK-MEL-28 Tumor Cells
[9] = SK-MEL-28, Table 3b, later runs, average for the one or more runs, categorized, read-out: IC50 for SK-MEL-28
[10] = Table 1b, later runs, average pIC50 for the one or more runs, read-out: B-Raf pIC50 (converted)

| SMILES | IC50 [1, 4] | IC50 [1, 5] | IC50 [2, 6] | IC50 [2, 7] | IC50 [3, 8] | IC50 [3, 9] | IC50 [1, 10] |
| --- | --- | --- | --- | --- | --- | --- | --- |
| Cc1ccc(S(=O)(=O)Nc2cccc(-c3nc(C(C)(C)C)sc3-c3ccnc(N)n3)c2F)cc1 [Example 146] | < 100 nM | 31.6 to 1000 nM | 100 to 1000 nM | 100 to 1000 nM | 100 to 1000 nM | 100 to 1000 nM |  |
| CC(C)CNc1nccc(-c2sc(N3CCOCC3)nc2-c2cccc(NS(=O)(=O)c3cc(F)ccc3F)c2)n1 [Example 206] | < 100 nM |  | < 100 nM | < 100 nM | < 100 nM | < 100 nM | 3.16 to 31.6 nM |
| CC(C)c1nc(-c2ccc(F)c(NS(=O)(=O)c3cc(F)ccc3F)c2)c(-c2ccnc(NC3CC3)n2)s1 [Example 122] | < 100 nM | 31.6 to 1000 nM | > 1000 nM | 1000 to 10000 nM | > 1000 nM | 1000 to 10000 nM |  |
| CC(C)c1nc(-c2ccc(F)c(NS(=O)(=O)c3c(F)cccc3F)c2)c(-c2ccnc(NCCCCN(C)C)n2)s1 [Example 167] |  | 31.6 to 1000 nM | 100 to 1000 nM | 100 to 1000 nM | > 1000 nM | 1000 to 10000 nM |  |
| CC(C)(C)OC(=O)NCCNc1nccc(-c2sc(C(C)(C)C)nc2-c2cccc(NS(=O)(=O)c3cc(F)ccc3F)c2F)n1 [Example 198] | < 100 nM | ≤ 3.16 nM | 100 to 1000 nM | 100 to 1000 nM | 100 to 1000 nM | 100 to 1000 nM |  |
| CC(C)c1nc(-c2ccc(F)c(NS(=O)(=O)c3cc(F)ccc3F)c2)c(-c2ccnc(NCCCS(C)(=O)=O)n2)s1 [Example 204] | < 100 nM |  | < 100 nM | < 100 nM | < 100 nM | < 100 nM | 3.16 to 31.6 nM |
| COCCCNc1nccc(-c2sc(C(C)(C)C)nc2-c2cccc(NS(=O)(=O)c3cc(F)ccc3F)c2F)n1 [Example 211] | < 100 nM | ≤ 3.16 nM | < 100 nM | < 100 nM | < 100 nM | < 100 nM |  |
| CC(C)(C)c1nc(-c2cccc(NS(=O)(=O)c3cc(F)ccc3F)c2F)c(-c2ccnc(CCCl)n2)s1 [Example 217] | < 100 nM | ≤ 3.16 nM |  | < 100 nM |  | < 100 nM |  |
| CC(C)Nc1nccc(-c2sc(C(C)C)nc2-c2cccc(NS(=O)(=O)c3cccc(F)c3)c2)n1 [Example 158] | < 100 nM | 31.6 to 1000 nM | > 1000 nM | 1000 to 10000 nM | > 1000 nM | 1000 to 10000 nM |  |
| Cn1cc(S(=O)(=O)Nc2cccc(-c3nc(C(C)(C)C)sc3-c3ccnc(N)n3)c2F)cn1 [Example 283, N-{3-[5-(2-amino-4-pyrimidinyl)-2-(1,1-dimethylethyl)-1,3-thiazol-4-yl]-2-fluorophenyl}-1-methyl-1H-pyrazole-4-sulfonamide hydrochloride] |  |  |  | 100 to 1000 nM |  | 100 to 1000 nM | 3.16 to 31.6 nM |
| CC(=O)NCCNc1nccc(-c2sc(C(C)C)nc2-c2ccc(F)c(NS(=O)(=O)c3c(F)cccc3F)c2)n1 [Example 183] | < 100 nM | 31.6 to 1000 nM | > 1000 nM | 1000 to 10000 nM | > 1000 nM | 1000 to 10000 nM |  |
| Cc1nccc(-c2sc(C(C)(C)C)nc2-c2cccc(NS(=O)(=O)c3ccoc3)c2Cl)n1 [Example 270, N-{2-chloro-3-[2-(1,1-dimethylethyl)-5-(2-methyl-4-pyrimidinyl)-1,3-thiazol-4-yl]phenyl}-3-furansulfonamide] |  | ≤ 3.16 nM |  | 100 to 1000 nM |  | 100 to 1000 nM |  |
| CC(C)CNc1nccc(-c2sc(C3CCOCC3)nc2-c2cccc(NS(=O)(=O)c3cc(F)ccc3F)c2F)n1 [Example 67, 2,5-Difluoro-N-{2-fluoro-3-[5-{2-[(2-methylpropyl)amino]-4-pyrimidinyl}-2-(tetrahydro-2H-pyran-4-yl)-1,3-thiazol-4-yl]phenyl}benzenesulfonamide] | < 100 nM | ≤ 3.16 nM | < 100 nM | < 100 nM | < 100 nM | < 100 nM |  |
| CC(C)c1nc(-c2ccc(F)c(NS(=O)(=O)c3ccco3)c2)c(-c2ccnc(NCCS(C)(=O)=O)n2)s1 [Example 34, N-{2-Fluoro-5-[2-(1-methylethyl)-5-(2-{[2-(methylsulfonyl)ethyl]amino}-4-pyrimidinyl)-1,3-thiazol-4-yl]phenyl}-2-furansulfonamide trifluoroacetic acid salt] | < 100 nM |  | > 1000 nM | 1000 to 10000 nM | > 1000 nM | 1000 to 10000 nM | 3.16 to 31.6 nM |
| CC(C)CNc1nccc(-c2sc(C(C)C)nc2-c2ccc(F)c(NS(=O)(=O)c3cc(F)ccc3F)c2)n1 [Example 121] | < 100 nM |  | 100 to 1000 nM | 100 to 1000 nM | 100 to 1000 nM | 100 to 1000 nM | 3.16 to 31.6 nM |
| Nc1nccc(-c2sc(C3CCC3)nc2-c2cccc(NS(=O)(=O)c3c(F)cccc3F)c2F)n1 [Example 118] | < 100 nM | ≤ 3.16 nM | 100 to 1000 nM | 100 to 1000 nM | 100 to 1000 nM | 100 to 1000 nM |  |
| CC(C)CNc1nccc(-c2sc(N3CCOCC3)nc2-c2cccc(NS(=O)(=O)c3c(F)cccc3F)c2Cl)n1 [Example 20, N-{2-Chloro-3-[5-{2-[(2-methylpropyl)amino]-4-pyrimidinyl}-2-(4-morpholinyl)-1,3-thiazol-4-yl]phenyl}-2,6-difluorobenzenesulfonamide] | < 100 nM | ≤ 3.16 nM | < 100 nM | < 100 nM | < 100 nM | < 100 nM |  |
| CC(C)(C)c1nc(-c2c(F)ccc(NS(=O)(=O)c3cc(F)ccc3F)c2F)c(-c2ccnc(N)n2)s1 [Example 258, N-{3-[5-(2-amino-4-pyrimidinyl)-2-(1,1-dimethylethyl)-1,3-thiazol-4-yl]-2,4-difluorophenyl}-2,5-difluorobenzenesulfonamide] |  | ≤ 3.16 nM |  | < 100 nM |  | < 100 nM |  |
| CC(C)c1nc(-c2ccc(F)c(NS(=O)(=O)c3c(F)cccc3F)c2)c(-c2ccnc(NCC3CC3)n2)s1 [Example 6, N-{5-[5-{2-[(Cyclopropylmethyl)amino]-4-pyrimidinyl}-2-(1-methylethyl)-1,3-thiazol-4-yl]-2-fluorophenyl}-2,6-difluorobenzenesulfonamide] | < 100 nM | 31.6 to 1000 nM | > 1000 nM | 1000 to 10000 nM | > 1000 nM | 1000 to 10000 nM |  |
| Cc1cccc(S(=O)(=O)Nc2cccc(-c3nc(C(C)(C)C)sc3-c3ccnc(N)n3)c2F)c1 [Example 147] | < 100 nM | 31.6 to 1000 nM | 100 to 1000 nM | 100 to 1000 nM | 100 to 1000 nM | 100 to 1000 nM |  |
| O=S(=O)(Nc1cccc(-c2nc(N3CCOCC3)sc2-c2ccncn2)c1Cl)c1cc(F)ccc1F [Example 240, N-{2-chloro-3-[2-(4-morpholinyl)-5-(4-pyrimidinyl)-1,3-thiazol-4-yl]phenyl}-2,5-difluorobenzenesulfonamide] |  | ≤ 3.16 nM |  | < 100 nM |  | < 100 nM |  |
| CC(C)(C)c1nc(-c2cccc(NS(=O)(=O)c3c(F)cccc3F)c2F)c(-c2ccnc(CCCO)n2)s1 [Example 247, N-(3-{2-(1,1-dimethylethyl)-5-[2-(3-hydroxypropyl)-4-pyrimidinyl]-1,3-thiazol-4-yl}-2-fluorophenyl)-2,6-difluorobenzenesulfonamide] |  |  |  | < 100 nM |  | < 100 nM | 3.16 to 31.6 nM |
